One data set relates to TNF-α. Description: TNF-α secreted by LPS-stimulated splenocytes. The note with it: LPS 100 ng/ml, metformin 200 μM, FK506 100 nM, 3 days; vs control (LPS). It counts as cell-based, C57BL/6 mice. As to the method: (§1) Concentrations of TNF-α and IL-6 present in the resulting culture broth were measured to compare the drug effects (FIG. 10). Also, a concentration of immunoglobulins (IgG) present in the culture broth was measured in the same cell culture conditions to compare the drug effects (FIG. 11). The statistical analysis was carried out using a Graph prism (t-test, ANOVA), and the statistical significance was p<0.05.

For the next data set, the system named is IL-6. Description: IL-6 secreted by LPS-stimulated splenocytes. The note with it: LPS 100 ng/ml, metformin 200 μM, FK506 100 nM, 3 days; vs control (LPS). The data set is classed as cell-based, C57BL/6 mice. The procedure:
as §1

Data set [1] deals with allogeneic reactive T cells. Description: mixed lymphocyte reaction (MLR), [3H]-thymidine uptake. It counts as cell-based, Balb/c. The note with it: vs untreated Allo control. As to the method: To examine an immunomodulatory effect when T cells were co-treated with metformin and FK506 under in vitro allo-response conditions, an effect of metformin and FK506 on the proliferation of allogeneic reactive T cells was examined using a mixed lymphocyte culture method (i.e., a mixed lymphocyte reaction (MLR)) (FIG. 3). […] In this case, the T cells were treated separately or together with metformin (200 μM) or FK506 (1 nM or 100 nM) according to the experimental conditions, and then cultured for 3 days to stimulate an allogeneic response. On the last day of culture, [^3H]-thymidine was added, and the T cells were additionally cultured for 18 hours. Then, a level of [^3H]-thymidine uptake was measured using a liquid scintillation counter (Beckman, USA), and expressed as a cpm value. The statistical analysis was carried out using a Graph prism (t-test, ANOVA), and the statistical significance was p<0.05.

The test system of a further data set is Treg cells. Description: flow cytometry of Treg activity under anti-CD3 T cell activation conditions. The following applies: 3 days; for Treg activity (ratio of Foxp3+CD25+ cells to CD4+ T cells): metformin 200 μM, FK506 100 nM, anti-CD3 1 μg/ml. It counts as cell-based, C57BL/6 mice. As to the method:
An effect of metformin and FK506 on the activity of Treg cells under T cell activation conditions (anti-CD3 conditions) was examined (FIGS. 8A and 8B). Splenocytes obtained from normal C57BL/6 mice were seeded in a 24-well plate at a density of 1×10^6 cells/ml, treated with metformin (200 μM) or FK506 (100 nM) according to the experimental conditions, and then cultured for 3 days under anti-CD3 activation conditions (1 μg/ml). For the analysis using a flow cytometer, the cells were treated with an anti-CD4-percp antibody and an anti-CD25-APC antibody, reacted at 4° C. for 30 minutes, permeabilized, reacted with an anti-Foxp3-PE antibody, and then analyzed using the flow cytometer. To analyze the Treg activity, cells expressing a CD4+CD25+Foxp3 marker were gated and analyzed. For the results, the ratio of Foxp3+CD25+ cells to the whole cultured CD4+ T cells was plotted on a bar graph. The statistical analysis was carried out using a Graph prism (t-test, ANOVA), and the statistical significance was p<0.05.
For orientation: In flow cytometry, cells or beads pass a laser one at a time.

Another data set has as its system IFN-γ. Description: ELISA of IFN-γ secreted by allogeneic reactive T cells in mixed lymphocyte culture. It counts as cell-based, Balb/c. The note with it: metformin 200 μM, 3 days. As to the method: (§2) To examine an effect of metformin and FK506 on the secretion of inflammatory cytokines by allogeneic reactive T cells, the allogeneic reactive T cells were treated with metformin (200 μM) or FK506 (1 nM or 100 nM) according to the experimental conditions, and then cultured for 3 days under the same in vitro allo-response conditions as in <Example 2>. Thereafter, levels of IFN-γ and IL-17 secreted by the T cells in the resulting culture broth were measured using ELISA (FIG. 5). The statistical analysis was carried out using a Graph prism (t-test, ANOVA), and the statistical significance was p<0.05. […] Thereafter, levels of IFN-γ and IL-17 secreted by the T cells in the resulting culture broth were measured using ELISA (FIG. 6). The statistical analysis was carried out using a Graph prism (t-test, ANOVA), and the statistical significance was p<0.05.
On the technique in general: An ELISA detects its analyte on a solid surface through an enzyme-linked reagent.

The test system of a further data set is immunoglobulins (IgG). Description: immunoglobulins (IgG) secreted by LPS-stimulated splenocytes. The note with it: LPS 100 ng/ml, metformin 200 μM, FK506 100 nM, 3 days; vs control (LPS). The data set is classed as cell-based, C57BL/6 mice. As to the method:
as §1

Data set [2] can be described thus: blood concentration of FK506 in whole blood (LC/MS/MS). The data set is classed as in vivo. The note with it: Sprague-Dawley, rat, subcutaneous; rats, whole blood after 4 weeks; FK506 1.5 mg/kg s.c., with or without metformin 250 mg/kg oral. The procedure:
Thereafter, a blood concentration of FK506 in the collected whole blood was measured using a mass spectrometer (API 3000 LC/MS/MS, Applied Biocystem, Foster City, Calif.).

Another data set deals with IL-17. Description: ELISA of IL-17 secreted by allogeneic reactive T cells in mixed lymphocyte culture. The data set is classed as cell-based, Balb/c. The following applies: metformin 200 μM, 3 days. The procedure: as §2
The subject of data set [3] is Splenocytes obtained from normal C57BL/6 mice. Description: MTT assay under T cell activation conditions (anti-CD3). The following applies: metformin 200 μM, FK506 100 nM, 3 days, anti-CD3 1 μg/ml; vs control (aCD3). The procedure: Splenocytes obtained from normal C57BL/6 mice were seeded in a 96-well plate at a density of 2×10^5 cells/ml, treated with metformin (200 μM) or FK506 (100 nM) according to the experimental conditions, and then cultured for 3 days under anti-CD3 activation conditions (1 μg/ml). In the MTT assay, a 3-(4,5dimethyl-thiazol-2-yl)-2,5-diphenyltetrazolium bromide compound was added before 4 hours of cell harvesting, and reacted for 4 hours. Thereafter, each well was treated with DMSO to measure the optical density at a wavelength of 540 nm.
(In general: Tetrazolium assays rely on reduction of a dye to a coloured formazan, in cell work by metabolically active cells.)

The mark [4] stands for this setting: metformin 200 μM, FK506 1 nM or 100 nM, 3 days.

The values that follow come from patent publication US10016376B2, “Composition for alleviating nephrotoxicity caused by immunosuppressive drug, comprising metformin, and composition for preventing or treating immune disease, comprising the same” (THE CATHOLIC UNIVERSITY OF KOREA INDUSTRY-ACADEMIC …, priority 2014, dated 2018).

For the compound `C=CC[C@@H]1/C=C(\C)C[C@H](C)C[C@H](OC)[C@H]2O[C@@](O)(C(=O)C(=O)N3CCCC[C@H]3C(=O)O[C@H](/C(C)=C/[C@@H]3CC[C@@H](O)[C@H](OC)C3)[C@H](C)[C@@H](O)CC1=O)[C@H](C)C[C@@H]2OC` [FK506, Tacrolimus], the “concentration of TNF-α in the culture broth” value in the data set with TNF-α was “not highly reduced”. Also, in the data set with IL-6, the “concentration of IL-6 in the culture broth” value is “not highly reduced”. In addition, the “proliferation of T cells ([3H]-thymidine uptake)” value in data set [1] (setting [4]) is on record as “remarkably reduced in a concentration-dependent manner”. In addition, the “Treg activity (ratio of Foxp3+CD25+ cells to CD4+ T cells)” value with Treg cells is “increased”. Moreover, the “concentration of IFN-γ in the culture broth” value in the data set with IFN-γ (FK506 1 nM or 100 nM) is on record as “reduced”. In the data set with immunoglobulins (IgG), the “concentration of immunoglobulins (IgG) in the culture broth” value is “not significantly changed”. Besides, in data set [2], the concentration at 4 weeks turned out to be 10.2 ± 1.3 ng/mL. For the same compound, the “concentration of IL-17 in the culture broth” value in the data set with IL-17 (FK506 1 nM or 100 nM) is “reduced”.

Turning to `CN(C)C(=N)NC(=N)N` [metformin, Metformin], in the data set on TNF-α, the “concentration of TNF-α in the culture broth” value is “not highly reduced”. For the same compound, the “cytotoxicity, optical density at 540 nm (MTT)” value in [3] was “no big difference in optical densities”. For the same compound, the “concentration of IL-6 in the culture broth” value in the data set with IL-6 is “not highly reduced”. The “proliferation of T cells ([3H]-thymidine uptake)” value is given as “suppressed” in data set [1] (Met 200 μM or 1,000 μM, CsA 10 nM or 100 nM, co-administered metformin 200 μM) and “suppressed” in [1] (setting [4]). Moreover, in the data set on Treg cells, the “Treg activity (ratio of Foxp3+CD25+ cells to CD4+ T cells)” value was “increased”. Also, the “Treg level/activity (ratio of Foxp3+CD25+ cells to CD4+ T cells)” value in the data set on Treg cells (metformin 1 mM, CsA 100 nM, anti-CD3) is given as “increased”. The “concentration of IFN-γ in the culture broth” value in the data set with IFN-γ (CsA 10 nM or 100 nM) and with IFN-γ (FK506 1 nM or 100 nM) was “reduced” throughout. Moreover, the “concentration of immunoglobulins (IgG) in the culture broth” value with immunoglobulins (IgG) is listed as “not significantly changed”. The “concentration of IL-17 in the culture broth” value in the data set with IL-17 (CsA 10 nM or 100 nM) and with IL-17 (FK506 1 nM or 100 nM) was “reduced” in each case.
